Results from ChEMBL document CHEMBL4665808, “Krisynomycins, Imipenem Potentiators against Methicillin-Resistant Staphylococcus aureus, Produced by Streptomyces canus” (2020).
Values after ≈ are worked out from the molar mass of the structure shown.

What was measured:
Assay type in all cases: functional
Staphylococcus aureus [1] = test: Antibacterial against methicillin-resistance Staphylococcus aureus MB5393 by broth dilution method
Staphylococcus aureus [2] = test: Potentiation of imipenem-induced activity antibacterial against methicillin-resistance Staphylococcus aureus MB5393 in presence of 4 ug/ml imipenem by broth dilution method
Staphylococcus aureus [3] = test: Potentiation of imipenem-induced activity antibacterial against methicillin-resistance Staphylococcus aureus MB5393 in presence of 2 ug/ml imipenem by broth dilution method
Staphylococcus aureus [4] = test: Potentiation of imipenem-induced activity antibacterial against methicillin-resistance Staphylococcus aureus MB5393 in presence of 1 ug/ml imipenem by broth dilution method

SMILES: C[C@@H](O)[C@H]1C(=O)N2C(C(=O)O)=C(SCCNC=N)C[C@H]12 [IMIPENEM ANHYDROUS]
- MIC (Staphylococcus aureus [1]): 16 µg/mL (≈ 53.4 µM)

SMILES: CC(C)=CCc1ccc(Cl)c2[nH]cc(C[C@@H]3NC(=O)[C@H](Cc4c[nH]c5c(Cl)cccc45)NC(=O)[C@@H]4CCCN4C(=O)[C@@H](CS(=O)(=O)O)NC(=O)[C@@H](NC(=O)[C@@H](NC(=O)[C@H](C)NC(=O)CC(=O)O)C(C)C)COC(=O)[C@H](CO)NC(=O)[C@@H](CC(C)C)NC(=O)[C@@H](C(C)C)NC3=O)c12
- MIC (Staphylococcus aureus [2]): 0.25 µg/mL
- MIC (Staphylococcus aureus [3]): 0.5 µg/mL
- MIC (Staphylococcus aureus [4]): 0.5 µg/mL
- MIC (Staphylococcus aureus [1]): 16 µg/mL (≈ 11.4 µM)

SMILES: CC(C)=CCc1cccc2[nH]cc(C[C@@H]3NC(=O)[C@H](Cc4c[nH]c5ccccc45)NC(=O)[C@@H]4CCCN4C(=O)[C@@H](CS(=O)(=O)O)NC(=O)[C@@H](NC(=O)[C@@H](NC(=O)[C@H](C)NC(=O)CC(=O)O)C(C)C)COC(=O)[C@H](CO)NC(=O)[C@@H](CC(C)C)NC(=O)[C@@H](C(C)C)NC3=O)c12
- MIC (Staphylococcus aureus [2]): 8 µg/mL
- MIC (Staphylococcus aureus [3]): 16 µg/mL
- MIC (Staphylococcus aureus [4]): 16 µg/mL
- MIC (Staphylococcus aureus [1]): > 128 µg/mL

SMILES: CC(C)=CCc1cccc2[nH]cc(C[C@@H]3NC(=O)[C@H](Cc4c[nH]c5c(Cl)cccc45)NC(=O)[C@@H]4CCCN4C(=O)[C@@H](CS(=O)(=O)O)NC(=O)[C@@H](NC(=O)[C@@H](NC(=O)[C@H](C)NC(=O)CC(=O)O)C(C)C)COC(=O)[C@H](CO)NC(=O)[C@@H](CC(C)C)NC(=O)[C@@H](C(C)C)NC3=O)c12
- MIC (Staphylococcus aureus [2]): 2 µg/mL
- MIC (Staphylococcus aureus [3]): 4 µg/mL
- MIC (Staphylococcus aureus [4]): 4 µg/mL
- MIC (Staphylococcus aureus [1]): > 128 µg/mL
